US7199129B2, “Derivatives of morphine-like opioid compounds” (Monash University, priority 2001, dated 2007)
Values joined by “and” are separate entries in the source; they are usually repeats but may differ in a detail not shown here. Equal values may be shown once.

System: ICR mice
Assay: Radiant heat-induced tail-flick response assay in mice
Format: in vivo
Conditions: IP; for % Inhibition (prolongation of tail-flick response time): 30 minutes; for Response Time (Seconds) 30 Mins., Average / Response Time (Seconds) 30 Mins.: 30 minutes after administration; for Response Time (Seconds) 30 Mins. / Response Time (Seconds) 0 Time: individual mice; for Response Time (Seconds) 30 Mins.: cut-off 15 seconds; for Response Time (Seconds) 0 Time / Response Time (Seconds) 0 Time, Average: pre-treatment (0 minutes)
Method: For the tail-flick assay, groups of four male or female ICR mice weighing 22±2 g were used, and the test compound dissolved in 2% Tween 80/0.9% NaCl was administered intraperitoneally. The compound was administered intraperitoneally at 4, 8, 16 or 32 mg/kg, using 2% Tween 80—0.9% NaCl as the vehicle. Controls received vehicle alone. Morphine-HCl at a dose of 10 mg/kg was used as a positive control. At the pre-treatment point (0 minutes) a focused beam of radiant heat was applied to the middle dorsal surface of the tail to elicit a tail-flick response. […] The time required to elicit a pain response was recorded for each animal at 30 minutes following administration of the test compound. A prolongation of 50% or more ≧50% of the time required to elicit tail-flick response indicated possible analgesic activity.

For Oc1ccc2c3c1O[C@H]1[C@@H](O)C=C[C@H]4[C@@H](C2)N(CCCNC(=Nc2ccccc2)Nc2ccccc2)CC[C@@]341 [KRS-5-150, (5α,6α)-7,8 didehydro-4,5-epoxy-17-(N,N′-bisphenylcarboxamidino-3-aminopropyl)morphinan,3,6-diol], the “% Inhibition (prolongation of tail-flick response time)” value (“% Inhibition” below) (4 mg/kg) was 5%, the “Response Time (Seconds) 30 Mins., Average” value (4 mg/kg) was 6.6 s and the “Response Time (Seconds) 30 Mins.” value (4 mg/kg, 4 mg/kg) was 6.2 Seconds (2×) and 6.4 Seconds and 7.4 Seconds. For the same molecule, the “Response Time (Seconds) 0 Time” value (4 mg/kg) was 6.3 Seconds (2×) and 6.4 Seconds and 6.2 Seconds, the “Response Time (Seconds) 0 Time, Average” value (4 mg/kg) was 6.3 s and the “% Inhibition” value (8 mg/kg) was 3%. The “Response Time (Seconds) 30 Mins., Average” value (8 mg/kg) was 6.6 s, the “Response Time (Seconds) 30 Mins.” value (8 mg/kg, 8 mg/kg) was 6.4 s and 6.8 s and 6.5 s and 6.7 s and the “Response Time (Seconds) 0 Time” value (8 mg/kg) was 6.3 Seconds (2×) and 6.5 Seconds and 6.4 Seconds. The “Response Time (Seconds) 0 Time, Average” value (8 mg/kg) was 6.4 s, the “% Inhibition” value (16 mg/kg) was 2% and the “Response Time (Seconds) 30 Mins., Average” value (16 mg/kg) was 6.4 s. The “Response Time (Seconds) 30 Mins.” value (16 mg/kg, 16 mg/kg) was 6.3 s and 6.5 s and 6.2 s and 6.4 s, the “Response Time (Seconds) 0 Time” value (16 mg/kg) was 6.2 Seconds (2×) and 6.3 Seconds and 6.4 Seconds and the “Response Time (Seconds) 0 Time, Average” value (16 mg/kg) was 6.3 s. The “% Inhibition” value (32 mg/kg) was 19%, the “Response Time (Seconds) 30 Mins., Average” value (32 mg/kg) was 7.6 s and the “Response Time (Seconds) 30 Mins.” value (32 mg/kg, 32 mg/kg) was 6.7 s and 8.7 s and 6.5 s and 8.4 s. The “Response Time (Seconds) 0 Time” value (32 mg/kg) was 6.5 Seconds and 6.3 Seconds (2×) and 6.4 Seconds, the “Response Time (Seconds) 0 Time, Average” value (32 mg/kg) was 6.4 s and the “analgesic activity in tail-flick assay (≧50% prolongation)” value (4, 8, 16 and 32 mg/kg) was “none of the four doses used showed significant activity”.
